In patent US9616245B2, “Method of treating cells with drug and radiation according to proton density” (priority 2009, dated 2017):
Where two headings read alike, the source gives them in different places.

Columns and labels:
lipoxygenase = details: cited from earlier work
cycloxygenase = details: cited from earlier work
protein kinase C (PKC) = details: cited from earlier work
[1] = molecular target: inducible nitric oxide synthase (iNOS) (Homo sapiens, UniProt P35228); details: cited from earlier work
IkB kinase = details: cited from earlier work
[2] = system: head and neck tumor cell lines; details: Clin. Cancer Res. 2005; 11(19); cited from earlier work
cancer cells = details: cited from earlier work
[3] = system: peripheral blood monocytes and alveolar macrophages; details: cited from earlier work

Sequence of inducible nitric oxide synthase (iNOS) (P35228 whole entry, species assumed): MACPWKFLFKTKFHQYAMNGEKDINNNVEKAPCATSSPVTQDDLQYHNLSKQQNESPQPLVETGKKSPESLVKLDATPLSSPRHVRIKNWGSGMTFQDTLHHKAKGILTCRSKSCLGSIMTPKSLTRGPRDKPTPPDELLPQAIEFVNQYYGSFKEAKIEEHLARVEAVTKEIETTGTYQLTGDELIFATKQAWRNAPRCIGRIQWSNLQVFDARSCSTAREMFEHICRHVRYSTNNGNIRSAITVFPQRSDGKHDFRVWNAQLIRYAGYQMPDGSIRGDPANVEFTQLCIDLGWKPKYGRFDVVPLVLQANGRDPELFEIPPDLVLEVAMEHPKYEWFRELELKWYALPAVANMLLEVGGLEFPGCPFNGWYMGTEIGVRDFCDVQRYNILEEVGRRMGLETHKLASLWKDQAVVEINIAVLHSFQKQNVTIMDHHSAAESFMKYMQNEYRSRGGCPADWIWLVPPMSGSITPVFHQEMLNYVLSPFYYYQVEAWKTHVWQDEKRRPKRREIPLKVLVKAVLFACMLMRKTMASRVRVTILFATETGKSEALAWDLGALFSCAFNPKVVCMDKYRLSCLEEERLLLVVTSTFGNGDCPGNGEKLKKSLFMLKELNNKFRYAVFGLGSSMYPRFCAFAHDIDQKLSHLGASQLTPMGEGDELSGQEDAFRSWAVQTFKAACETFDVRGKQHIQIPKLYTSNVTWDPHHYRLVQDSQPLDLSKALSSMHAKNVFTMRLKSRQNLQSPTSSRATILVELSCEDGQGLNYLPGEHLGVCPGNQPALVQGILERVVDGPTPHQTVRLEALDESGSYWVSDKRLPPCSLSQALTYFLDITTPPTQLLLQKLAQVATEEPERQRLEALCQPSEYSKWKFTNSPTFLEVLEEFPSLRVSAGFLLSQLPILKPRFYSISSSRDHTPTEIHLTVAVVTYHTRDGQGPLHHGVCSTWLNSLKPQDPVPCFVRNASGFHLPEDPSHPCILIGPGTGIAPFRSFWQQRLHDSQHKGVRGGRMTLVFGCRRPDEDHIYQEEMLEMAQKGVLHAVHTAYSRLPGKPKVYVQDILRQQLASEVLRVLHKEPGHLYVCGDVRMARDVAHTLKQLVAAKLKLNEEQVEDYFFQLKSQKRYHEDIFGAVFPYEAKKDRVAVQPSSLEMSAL
Procedure for recurrent Meduloblastoma: They also had high-grade fever. The chemotherapy was stopped for a week and given a blood transfusion and stabilized the patient. In the second leg the patient was then put on FORN mediated metronomic chemotherapy upon the request of their parent.
During the FORN break period, as advised by the patient's treating oncologist, the patient continued the chemotherapy without FORN. Thus during the third leg the patient took chemotherapy without FORN. […] Another transfusion of blood was conducted.
During the third leg of the trial, the cytotoxic drugs were continued to be administered, without the use of FORN.

COc1cc([C@@H]2c3cc4c(cc3[C@@H](O[C@@H]3O[C@@H]5CO[C@@H](C)O[C@H]5[C@H](O)[C@H]3O)[C@H]3COC(=O)[C@H]23)OCO4)cc(OC)c1O [VP 16, Etoposide]
bone marrow / blood counts (recurrent Meduloblastoma; human, in vivo): severe bone marrow depression

COc1cc(/C=C/C(=O)CC(=O)/C=C/c2ccc(O)c(OC)c2)ccc1O [Curcumin]
inhibition of lipoxygenase (lipoxygenase): inhibits
inhibition of cycloxygenase (cycloxygenase): inhibits
inhibition of phorbol ester induced PKC activity (protein kinase C (PKC)): inhibits
inhibition of iNOS [1]: inhibits
inhibition of IkB kinase (IkB kinase): potent inhibitor
growth of tumor cell lines [2]: suppresses growth
apoptosis (programmed cell death) (cancer cells): induce apoptosis
production of inflammatory cytokines [3]: inhibit production

O=P1(N(CCCl)CCCl)NCCCO1 (stereo not shown) [Cyclophosphamide]
bone marrow / blood counts (recurrent Meduloblastoma; first leg, without FORN, metronomic mode with three anti angiogenic drugs, after 2 weeks): severe bone marrow depression
